Several values for one entry are separate records, joined by “and”; a condition that tells them apart may be missing. Equal entries are not always repeated.
Assays:
Format in all cases: in vivo, Guangxi Bama mini-pigs
[1] = test system: porcine full-thickness burn wounds; experiment: Porcine full-thickness burn wound healing experiment; settings: for Wound healing time (days, X +/− S): 9 wounds per group
Method: (2) Experimental animals: Three female Guangxi Bama mini-pigs are 19-21 kilograms (provided by Tianjin Bainong Laboratory Animal Breeding Technology Co., Ltd., Tianjin, China). Animals were housed in isolated steel cages (80×100×110 cm^3) at 25° C. under natural lighting in the Experimental Animal Center, after thoroughly disinfecting the breeding room and the cages for animals with disinfectants and ultraviolet lamps. Non-experimental personnel are strictly prohibited from entering the breeding room during the experiment Animals were fed with standard pig chow twice daily, 150 grains at a time, and had access to water ad libitum (water is of the clean standard for tap water). The breeding room and cage are disinfected regularly on a weekly basis, and the feed tank and the water sink are cleaned before each feeding.
(3) Creation of porcine full-thickness burn wound models: The miniature pig was raised conventionally, fasted for 12 h, laid on one side, and injected with sumianxin injection into the hip muscle. Once anesthetized, the miniature pig was transferred to an operating table and a ventilation tube was placed in the mouth. After disinfection of the back of the ear, an indwelling needle of the auricle vein was placed for adequate analgesia and sedation. The surgical area on the back was prepared, disinfected with iodophor, on which a sterile sheet was spread, and an expected site of a burn was marked. The aluminum block mold (the net weight of the aluminum block mold is 265 g, and the load is 1 kg) was heated to 96° C. for 10 minutes, and was in close contact with the skin for 45 seconds. Each pig had 9 wounds. The operation on the back of the 3 mini pigs is consistent. After the operation, the wounds were disinfected with iodophor, on which cotton pads dressing and elastic sleeves were applied. Antibiotics were injected intravenously to prevent infection, and 2 ml of the awakening agent Lu Xingning was injected intravenously. The pigs were then transferred to the cages. One hour after waking up, the pigs were fed and given oral rehydration saline. Activities and signs of the pigs were closely observed. After the burn injury, local debridement and different treatments were performed on the wounds. Three weeks after injury, the wounds were covered by necrotic eschar, without exudate and dissolution reaction. Excisional debridement down to the fat layer was performed. Wounds were then dressed and covered with elasticated jackets to prevent animal-initiated damage. Preemptive antibiotics and analeptic Lu Xingning were administered i.v., then the animals were transferred to individual cages, and monitored closely for adverse outcomes during their post-procedure recovery. Post-surgical pain was managed with oral analgesia.
In order to verify the therapeutic effect of the composition of this application on burn wounds, the composition of Example 3 of this application, recombinant human epidermal growth factor rhEGF (5000 IU/mL, 15 mL, Shenzhen Watsin Genetech Ltd.) and physiological saline were used respectively to treat the full-thickness burn wounds of the pigs.
The wounds were photographed and measured at day 7, 14, 21, 28 after different treatments. It can be seen from FIG. 2 that the new granulation tissue of the wound is fresh and rosy without exudation. […]

P63 = experiment: Immunohistochemistry of healed epidermis, IOD of P63; settings: 4 weeks after treatment, Image-Pro Plus 6.0
Method: (§1) An immunohistochemistry analysis was performed to identify the localization and expression of specific molecular markers of keratinocytes in the healed epidermis.
(§2) It can be seen from FIG. 6 that the nuclear transcription factor P63 was mainly expressed in undifferentiated proliferating keratinocytes located in the basal layer. CK 10 was mainly expressed in mature differentiating keratinocytes. The expression of P63 and CK10 protein indicate the proliferation and differentiation of keratinocytes during epithelialization and repair of wounds. The higher the expression of P63 and CK10 protein, the faster the cells proliferate and differentiate. In the late stage of wound repair, fibroblasts secrete more collagen fibers, and a large number of collagen fibers increase and are densely arranged. Masson staining is used to mark the subcutaneous collagen fibers as green. The structure of each layer of the epidermis treated with the present invention is clear. The proliferative layer and the differentiated layer can be clearly identified by immunohistochemical staining.
(§3) Integrated optical density (IOD) values analysis of immunohistological images of P63 and CK10 are performed by Image-Pro Plus 6.0, as shown in Table 3 and FIGS. 8 to 9. […]

CK10 = experiment: Immunohistochemistry of healed epidermis, IOD of CK10; settings: 4 weeks after treatment, Image-Pro Plus 6.0
Method: as §1, §2, §3

[2] = test system: healed epidermis (proliferative layer and differentiated layer); experiment: Histologic epidermal thickness of healed porcine burn wounds
Method: as §1
The epidermis partitions into two layers: a proliferative layer and a differentiated layer.

recombinant human epidermal growth factor [rhEGF]
wound healing, gross appearance ([1]; FIG. 2, versus saline group): heal faster than those of the saline group | residual wound area ([1]; FIG. 3, compared to the saline group, p<0.05): obviously reduced wound area at day 28 | wound healing rate ([1]; FIG. 4, compared to the saline group, p<0.05): obviously improved the wound healing rate at day 7, 14, 21 | Wound healing time (days, X +/− S) ([1]; Test Example 1, time to complete epithelialization): 23.56±4.85 days and 23.56 ± 4.85^2 days | Wound healing time (days, X +/− S) ([1]; Test Example 3): 23.56 ± 4.85^2 days | IOD (P63) (X +/− S) (P63): 21929.27 | IOD (CK10) (X +/− S) (CK10): 395254.15 | Thickness of differentiated layer (X +/− S) [2]: 246.20 μm | Thickness of proliferative layer (X +/− S) [2]: 35.92 μm
